Consider four molecules from paper PMC11522901, “Translation of Deoxyribonucleic Acid into Synthetic Alpha Helical Peptides for Darwinian Evolution” (JACS Au, 2024).

The test system of one experiment is GST-MDM2. Description: Binder/nonbinder affinity selection on GST-MDM2 beads with plate reader readout. The format is binding. Conditions: 1:1 mixture, 500 nM each, 2 h at 4 °C with GST-MDM2 on GSH beads, four washes, elution 95 °C 5 min. The source says:
We next investigated whether a templated ligation could yield peptides in an α-helical conformation. Since CD-based analyses would be difficult to interpret given the PNA, we opted to assess the helical nature of the peptide using binding to a target that requires this conformation. To this end, we used MDM2, an important regulator of the p53 tumor suppressor, which binds to an α-helix of p53[47] and has been a testing ground for stapling technologies[48]−[52] and screening technologies.[53]−[56] Additionally, several X-ray diffraction structures of the MDM2-peptide complex have been reported, supporting the importance of the helicity of the peptide.[51],[57],[58] […] Affinity selection of this mixture against GST-MDM2 immobilized on GSH beads was monitored by fluorescence quantification of the supernatant solution. […]
Ten μL of MagneGST glutathione particles (Promega #V8611) were blocked with 1 mg/mL BSA in PBS-CHAPS (10 mM phosphate buffer, 2.7 mM KCl, and 137 mM NaCl, pH 7.4, with 0.05% CHAPS) three times at room temperature for 5 min. […] The initial library, post-incubation library, washes, and elution were analyzed by a plate reader (SpectraMax i3x, in black 96-well microtiter plates (Thermo Scientific #267342)). […]

The next experiment addresses T1, MDM2 (Homo sapiens, UniProt Q00987).
T1 construct: made in house
The experiment can be described thus: Surface plasmon resonance (SPR) against captured GST-MDM2. The class given is binding. Conditions: SPR Biacore T200, 25 °C, PBS-P+; GST-MDM2 captured via anti-GST antibody on CM5 chip; 2-fold dilutions 250 nM to 3.91 nM; association 250 s, dissociation 400 s. As to the method:
SPR experiments were performed on a Biacore T200 instrument (GE Healthcare) at 25 °C in PBS-P+ buffer (10× stock; Cytiva Life Sciences #28995084). One mL PP 96-well plates (Greiner #780201) were used for dilution directly in the plates. Anti-GST antibody (Cytiva #27457701) was chemically immobilized on a CM5 series S sensor chip (Cytiva Life Sciences #29149604) by EDC/NHS-mediated coupling. For this, an amine coupling kit (Cytiva Life Sciences #BR100633) and the recommended protocol were followed with the following specifications: 20 μg/mL of antibody diluted in 10 mM NaAc pH 5.0 buffer flowed over both flow channels for 600 s (flow rate 10 μL min^–1).
Kinetic measurements consisted of ligand capture of GST-MDM2 (200 nM, 350 s injection, flow rate 10 μL min^–1, stabilization 60 s), followed by injections (association, 250 s; dissociation, 400 s; flow rate, 30 μL min^–1) of decreasing concentrations of compounds (2-fold cascade dilutions from the starting concentration). The chip was regenerated between cycles by one injection of regeneration solution (10 mM glycine-HCl at pH 1.5) for 10 s at a flow rate of 30 μL min^–1, followed by a 120 s stabilization period. Binding was measured as resonance units over time after blank subtraction, and the data were interpreted using Biacore T200 software (version 3.2). The KD values were calculated based on steady-state affinity (1:1 binding). […]
5. Surface Plasmon Resonance Results […]
dotted lines representing the fittings from which the kinetic values are calculated. The compounds […]
shown in Figure 6 are tested at 250 nM (highest concentration) with a 2-fold dilution series until 3.91 nM (lowest concentration).
SPR Curves of compounds 4.1 and 4.4
4.1: Concentrations tested: 125 nM to 3.91 nM (2-fold dilutions) – KD: ND
Supplementary Figure 4. SPR curve of compound 4.1 against MDM2
On the technique in general: In SPR one partner is held on a chip, and binding of the other changes the refractive index at the surface.

T1 sequence (Q00987 whole entry, species assumed): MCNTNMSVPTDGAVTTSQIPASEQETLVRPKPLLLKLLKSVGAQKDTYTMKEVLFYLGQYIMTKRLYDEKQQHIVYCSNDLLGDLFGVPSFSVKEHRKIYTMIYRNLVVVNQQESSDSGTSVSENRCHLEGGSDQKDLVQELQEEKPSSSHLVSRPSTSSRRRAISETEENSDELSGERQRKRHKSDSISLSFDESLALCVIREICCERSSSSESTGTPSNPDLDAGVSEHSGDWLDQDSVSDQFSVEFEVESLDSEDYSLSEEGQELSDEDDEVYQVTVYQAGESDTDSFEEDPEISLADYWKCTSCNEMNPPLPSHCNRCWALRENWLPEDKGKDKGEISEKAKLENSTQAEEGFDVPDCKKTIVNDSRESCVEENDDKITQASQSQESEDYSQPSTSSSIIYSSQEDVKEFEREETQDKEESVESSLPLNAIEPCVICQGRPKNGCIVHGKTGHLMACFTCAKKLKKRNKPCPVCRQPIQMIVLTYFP

“PNA- Gly Ser Nle Cba Gln Ala Trp Tyr Glu Nle Phe Thr Leu Gly -PNA (head to tail) [binder]”: the “recovery in heat elution after affinity selection (fluorescence)” value with GST-MDM2 is “strong recovery”.
As for `CCCC[C@H](NC(=O)[C@H](CC(C)C)NC(=O)[C@H](CCC(N)=O)NC(=O)[C@H](C)NC(=O)[C@H](Cc1c[nH]c2ccccc12)NC(=O)[C@H](Cc1ccc(O)cc1)NC(=O)[C@H](CCC(N)=O)NC(=O)[C@H](CCCC)NC(=O)[C@H](Cc1ccc(F)c(F)c1)NC(=O)[C@@H](NC(=O)[C@H](CC(C)C)NC(=O)CNC(=O)CN(CCNC(=O)CN(CCNC(=O)CN(CCNC(=O)CN(CCNC(=O)[C@H](CCCNC(=N)N)NC(=O)COCCOCCNC(=O)[C@H](CCCNC(=N)N)NC(=O)CN(CCNC(=O)CN(CCNC(=O)CN(CCNC(=O)CN(CCNC(=O)CN(CCNC(=O)CN(CCNC(=O)CN(CCNC(=O)CN(CCNC(=O)[C@H](CCCNC(=N)N)NC(C)=O)C(=O)Cn1cnc2c(=O)[nH]c(N)nc21)C(=O)Cn1ccc(N)nc1=O)C(=O)Cn1ccc(N)nc1=O)C(=O)Cn1cnc2c(=O)[nH]c(N)nc21)C(=O)Cn1cc(C)c(=O)[nH]c1=O)C(=O)Cn1cnc2c(N)ncnc21)C(=O)Cn1cnc2c(=O)[nH]c(N)nc21)C(=O)Cn1cnc2c(=O)[nH]c(N)nc21)C(=O)Cn1ccc(N)nc1=O)C(=O)Cn1ccc(N)nc1=O)C(=O)Cn1cc(C)c(=O)[nH]c1=O)C(=O)Cn1cnc2c(N)ncnc21)[C@@H](C)O)C(=O)N[C@@H](CO)C(=O)NCC(=O)NCCN(CC(=O)NCCN(CC(=O)NCCN(CC(=O)NCCN(CC(=O)N[C@@H](CCCNC(=N)N)C(N)=O)C(=O)Cn1ccc(N)nc1=O)C(=O)Cn1cnc2c(=O)[nH]c(N)nc21)C(=O)Cn1cnc2c(=O)[nH]c(N)nc21)C(=O)Cn1ccc(N)nc1=O` [2.2 (PNA)], at MDM2, the koff – broadly, a measure of how fast the partners let go of each other – was 0.0029 s⁻¹ and the kon – broadly, the rate constant with which the complex forms – turned out to be 830000 M⁻¹ s⁻¹.
On the same counts, the results for `CCCC[C@H](NC(=O)[C@H](CC(C)C)NC(=O)[C@H](CCC(N)=O)NC(=O)[C@H](C)NC(=O)[C@H](Cc1c[nH]c2ccccc12)NC(=O)[C@H](Cc1ccc(O)cc1)NC(=O)[C@H](CCC(N)=O)NC(=O)[C@H](CCCC)NC(=O)[C@H](Cc1ccccc1)NC(=O)[C@@H](NC(=O)[C@H](CC(C)C)NC(=O)CNC(=O)CN(CCNC(=O)CN(CCNC(=O)CN(CCNC(=O)CN(CCNC(=O)[C@H](CCCNC(=N)N)NC(=O)COCCOCCNC(=O)[C@H](CCCNC(=N)N)NC(=O)CN(CCNC(=O)CN(CCNC(=O)CN(CCNC(=O)CN(CCNC(=O)CN(CCNC(=O)CN(CCNC(=O)CN(CCNC(=O)CN(CCNC(=O)[C@H](CCCNC(=N)N)NC(C)=O)C(=O)Cn1cnc2c(=O)[nH]c(N)nc21)C(=O)Cn1ccc(N)nc1=O)C(=O)Cn1ccc(N)nc1=O)C(=O)Cn1cnc2c(=O)[nH]c(N)nc21)C(=O)Cn1cc(C)c(=O)[nH]c1=O)C(=O)Cn1cnc2c(N)ncnc21)C(=O)Cn1cnc2c(=O)[nH]c(N)nc21)C(=O)Cn1cnc2c(=O)[nH]c(N)nc21)C(=O)Cn1ccc(N)nc1=O)C(=O)Cn1ccc(N)nc1=O)C(=O)Cn1cc(C)c(=O)[nH]c1=O)C(=O)Cn1cnc2c(N)ncnc21)[C@@H](C)O)C(=O)N[C@@H](CO)C(=O)NCC(=O)NCCN(CC(=O)NCCN(CC(=O)NCCN(CC(=O)NCCN(CC(=O)N[C@@H](CCCNC(=N)N)C(N)=O)C(=O)Cn1ccc(N)nc1=O)C(=O)Cn1cnc2c(=O)[nH]c(N)nc21)C(=O)Cn1cnc2c(=O)[nH]c(N)nc21)C(=O)Cn1ccc(N)nc1=O` [2.1 (PNA)] are 0.0021 s⁻¹ and 1e+06 M⁻¹ s⁻¹.
On the same counts, the results for `CCCC[C@H](NC(=O)[C@H](CC1CCC1)NC(=O)[C@H](CCC(N)=O)NC(=O)[C@H](C)NC(=O)[C@H](Cc1c[nH]c2ccccc12)NC(=O)[C@H](Cc1ccc(O)cc1)NC(=O)[C@H](CCC(N)=O)NC(=O)[C@H](CCCC)NC(=O)[C@H](Cc1ccccc1)NC(=O)[C@@H](NC(=O)[C@H](CC(C)C)NC(=O)CNC(=O)CN(CCNC(=O)CN(CCNC(=O)CN(CCNC(=O)CN(CCNC(=O)[C@H](CCCNC(=N)N)NC(=O)COCCOCCNC(=O)[C@H](CCCNC(=N)N)NC(=O)CN(CCNC(=O)CN(CCNC(=O)CN(CCNC(=O)CN(CCNC(=O)CN(CCNC(=O)CN(CCNC(=O)CN(CCNC(=O)CN(CCNC(=O)[C@H](CCCNC(=N)N)NC(C)=O)C(=O)Cn1cnc2c(=O)[nH]c(N)nc21)C(=O)Cn1ccc(N)nc1=O)C(=O)Cn1ccc(N)nc1=O)C(=O)Cn1cnc2c(=O)[nH]c(N)nc21)C(=O)Cn1cc(C)c(=O)[nH]c1=O)C(=O)Cn1cnc2c(N)ncnc21)C(=O)Cn1cnc2c(=O)[nH]c(N)nc21)C(=O)Cn1cnc2c(=O)[nH]c(N)nc21)C(=O)Cn1ccc(N)nc1=O)C(=O)Cn1ccc(N)nc1=O)C(=O)Cn1cc(C)c(=O)[nH]c1=O)C(=O)Cn1cnc2c(N)ncnc21)[C@@H](C)O)C(=O)N[C@@H](CO)C(=O)NCC(=O)NCCN(CC(=O)NCCN(CC(=O)NCCN(CC(=O)NCCN(CC(=O)N[C@@H](CCCNC(=N)N)C(N)=O)C(=O)Cn1ccc(N)nc1=O)C(=O)Cn1cnc2c(=O)[nH]c(N)nc21)C(=O)Cn1cnc2c(=O)[nH]c(N)nc21)C(=O)Cn1ccc(N)nc1=O` [1.1 (PNA)] are 0.0014 s⁻¹ and 1.9e+06 M⁻¹ s⁻¹.
